In patent US6573255B1, “Vitamin D analogues” (Leo Pharmaceutical Products Ltd., A/S, priority 1999, dated 2003):
Read-outs that look alike come from different tables or passages of the source.

Key:
U937 leukemia cell = U937 leukemia cell assay (antiproliferative activity); assay type: cell-based; details: for U937, -log IC50: U937 leukemia cells; for U937, rel.: geometric mean of the ratios relative to 1α,25(OH)2D3, higher = more potent
Description: (§1) The present invention provides a hitherto undisclosed series of vitamin D analogues which is characterised by the presence of an additional hydroxy group or halogen atom in the 26 position of the side chain.

[1] = system: MCF-7 mammary cancer cell; assay: MCF-7 mammary cancer cell assay (antiproliferative activity); assay type: cell-based; details: for MCF-7, -log IC50: MCF-7 mammary cancer cells; for MCF-7, rel.: geometric mean of the ratios relative to 1α,25(OH)2D3, higher = more potent
Description: as §1

HaCaT = HaCaT assay, a psoriasis model; assay type: cell-based; details: for HaCaT, rel.: geometric mean of the ratios relative to 1α,25(OH)2D3, higher = more potent; for HaCaT, -log IC50: HaCaT cells
Description: as §1

[2] = in vitro model of metabolic stability, rat liver homogenate S-9; assay type: in vitro ADME
Description: Another problem using vitamin D analogues in the non-topical treatment of hyperproliferative diseases, such as cancer, is metabolic stability in vivo. This stability has to be above a certain minimum level, for a compound to be used in practical therapy.

[3] = calcemic activity, rat calciuric model (urinary excretion of calcium)
Description: as §1

[4] = relative to 1α,25(OH)2D3; cited from earlier work
mammary tumours = details: rats with mammary tumours, 1 μg/kg body weight for 28 days; cited from earlier work
[5] = chronically uraemic rats with secondary hyperparathyroidism; cited from earlier work
human carcinoma cells = details: in vitro; cited from earlier work
[6] = system: different types of cancer cells; details: brain glial tumor, MCF-7, NB4, HL-60, acute myeloid leukemia, MG-63 cells; cited from earlier work

Calcem.; in vivo ([3]; rat, in vivo)	S-9, metab. in vitr.: fraction left after 1 hour incubation [2]	half-life ([2]; rat)	Structure (SMILES)	U937, -log IC50 (U937 leukemia cell)	U937, rel. (U937 leukemia cell)	MCF-7, -log IC50 [1]	MCF-7, rel. [1]	HaCaT, rel. (HaCaT)	T½ ([2]; rat liver homogenate S-9)	HaCaT, -log IC50 (HaCaT)	S-9, metab. in vitr.: fraction left after 1 hour incubation ([2]; rat liver homogenate S-9, 1 hour incubation)	stability in in vitro model of metabolic stability ([2]; rat liver homogenate S-9, compared to seocalcitol and 1α,25(OH)2D3)	Calcem.; in vivo ([3]; rat calciuric model, geometric mean of the ratios relative to 1α,25(OH)2D3)	calcemic vitamin D activity, urinary excretion of calcium in rats, % of that of 1α,25(OH)2D3 [4]	reduction of the initial tumour volume (mammary tumours)	serum calcium concentration (mammary tumours)	plasma PTH level [5]	plasma phosphate level [5]	inhibiting the invasiveness of human carcinoma cells (human carcinoma cells)	inhibitory activity on proliferation of cancer cells [6]
0.6	0.29	–	C=C1/C(=C\C=C2/CCC[C@]3(C)[C@@H]([C@@H](C)[C@@H](C#CC[C@@](O)(CC)[C@@H](C)O)OCC)CC[C@@H]23)C[C@@H](O)C[C@@H]1O [Compound 108, 1(S),3(R)-Dihydroxy-20(R)-(5(S),6(R)-dihydroxy-1(S)-ethoxy-5-ethyl-2-heptyn-1-yl)-9,10-secopregna-5(Z),7(E),10(19)-triene]	8.9 ± 0.2	49	9.8 ± 0.2	89	30	–	8.8 ± 0.2	–	–	–	–	–	–	–	–	–	–
–	–	1.3 h	C=C1/C(=C\C=C2/CCC[C@]3(C)[C@@H]([C@H](C)/C=C/C=C/C(O)(CC)CC)CC[C@@H]23)C[C@@H](O)C[C@@H]1O [seocalcitol]	–	–	–	–	–	–	–	–	–	–	–	–	–	–	–	–	–

Second part, the compound before the results:

Structure (SMILES)	Calcem.; in vivo ([3]; rat, in vivo)	S-9, metab. in vitr.: fraction left after 1 hour incubation [2]	half-life ([2]; rat)	U937, -log IC50 (U937 leukemia cell)	U937, rel. (U937 leukemia cell)	MCF-7, -log IC50 [1]	MCF-7, rel. [1]	HaCaT, rel. (HaCaT)	T½ ([2]; rat liver homogenate S-9)	HaCaT, -log IC50 (HaCaT)	S-9, metab. in vitr.: fraction left after 1 hour incubation ([2]; rat liver homogenate S-9, 1 hour incubation)	stability in in vitro model of metabolic stability ([2]; rat liver homogenate S-9, compared to seocalcitol and 1α,25(OH)2D3)	Calcem.; in vivo ([3]; rat calciuric model, geometric mean of the ratios relative to 1α,25(OH)2D3)	calcemic vitamin D activity, urinary excretion of calcium in rats, % of that of 1α,25(OH)2D3 [4]	reduction of the initial tumour volume (mammary tumours)	serum calcium concentration (mammary tumours)	plasma PTH level [5]	plasma phosphate level [5]	inhibiting the invasiveness of human carcinoma cells (human carcinoma cells)	inhibitory activity on proliferation of cancer cells [6]
C=C1/C(=C\C=C2/CCC[C@]3(C)[C@@H]([C@H](C)CCCC(C)(C)O)CC[C@@H]23)C[C@@H](O)C[C@@H]1O [1α,25(OH)2D3]	1.0	–	–	7.5 ± 0.3	1.0	7.7 ± 0.3	1.0	1.0	2.5 h	–	–	–	–	–	–	–	–	–	–	–
C=C1C(=CC=C2CCCC3(C)C2CCC3C(C)C(C#CCC(O)(CC)CC)OCC)CC(O)CC1O (stereo not drawn) [CB1093, 20-epi-22-ethoxy-23-yne-24a, 26a, 27a, trishomo-1α,25(OH)2D3 vitamin D3]	–	–	–	9.5 ± 0.1	74	10.2 ± 0.3	311	18	–	8.7 ± 0.9	0.02	quite low	0.27	27%	49%	slight increase	significantly decreased	significantly decreased	potent activity	potent inhibitory activity
C=C1C(=CC=C2CCCC3(C)C2CCC3C(C)C(C#CCC(O)(CC)C(C)O)OCC)CC(O)CC1O [Compound 103, 1(S),3(R)-Dihydroxy-20(R)-(5(S),6(S)-dihydroxy-1(S)-ethoxy-5-ethyl-2-heptyn-1-yl)-9,10-secopregna-5(Z),7(E),10(19)-triene]	0.11	0.43	–	9.0 ± 0.2	36	9.9 ± 0.1	153	38	–	9.0 ± 0.3	–	–	–	–	–	–	–	–	–	–
